Laboratory results as given in patent publication US7432228B2, “Inhibitor against biosynthesis of abscisic acid” (Riken, priority 2001, dated 2008).

What was measured:
Mung bean = test: Root length of cut Mung bean hypocotyls soaked in compound solutions; assay type: in vivo; settings: Mung bean hypocotyls soaked by 2 cm in compound solution at a given concentration; 6th day after soaking
Description: The compounds of the present invention were applied to plant bodies. Hypocotyls of Mung bean on the 6th-day after seeding, that were grown at 25° C., were cut in water with razor, and the hypocotyl parts were soaked by 2 cm in solutions of the compounds at a given concentration. On the 6th day after the soaking, the lengths of the roots were measured. The following results were shown as an average length per root.

seeds of barley = test: Germination rate of barley seeds; assay type: in vivo; settings: barley seeds with lowered germination rate; 100 seeds, test solution at a given concentration, light, 25° C., after one week
Description: In the test, 2 sheets of filter paper were placed in a 15 cm laboratory dish, and each of the test solutions of the compounds at a given concentration (10 ml) was added to the dish, and 100 seeds were put on the paper and cultured under a light at 25° C. Ratios of germinated seeds were calculated after one week.

spinach = test: Inhibitory test against pore closing; assay type: in vivo; settings: for inhibitory activities against pore closing: plants with open pores treated with compound, transferred into mannose solution of high concentration
Description: Inhibitory tests against pore closing were carried out by using the aforementioned compounds. In these tests, plants in the state that their pores are open are treated with the compounds, and closings of the pores are examined when the plants are transferred into a mannose solution of high concentration to make the pores closed. Pore closing is caused by the effect of abscisic acid biosynthesized in the body of a plant that has detected the change of the mannose concentration. The test was carried out according to the method described in the literature of Plant Physiology (1992) 99, 1258-1260 and by using spinach as a material.

[1] = tested on: epoxycarotenoid dioxygenase (NCED); test: Inhibitory action against epoxycarotenoid dioxygenase (NCED): cleavage reaction of neoxanthin; assay type: biochemical; settings: concentration of 100 μM
Description: The inhibitory action against epoxycarotenoid dioxygenase was studied. The test was carried out according to the method described in The Plant Journal (2001) 27(4), 325-333.
The NCED inhibitory activity of the compounds of the present invention was studied.

[2] = tested on: abscisic acid biosynthesis; settings: reported in Plant Physiology (1992) 99, 1258-1260; cited from earlier work

SMILES	Length (cm), average length per root (Mung bean) [cm]	Germination rate (%) (seeds of barley)	inhibitory activities against pore closing (spinach)	inhibition of the cleavage reaction of neoxanthin by NCED [1]	inhibitory action on the abscisic acid biosynthesis [2]	pore closing when treated plants were added with abscisic acid (spinach; compound-treated plants, abscisic acid added)
COc1ccc(NCC=Cc2ccc(OC)c(OC)c2)cc1 [SY87, [3-(3,4-dimethoxy-phenyl)-allyl]-(4-methoxy-phenyl)-amine]	0.6	40	potent inhibitory activities			
COC(=O)CN(CC=Cc1ccc(OC)c(OC)c1)Cc1ccc(F)cc1 [SY97, [[3-(3,4-dimethoxy-phenyl)-allyl]-(4-fluoro-benzyl)-amino]-acetic acid methyl ester]	0.7	18	potent inhibitory activities			
COc1ccc(C=CCNCc2ccc(F)cc2)cc1OC [SY95, [3-(3,4-dimethoxy-phenyl)-allyl]-(4-fluoro-benzyl)-amine]	0.6	29	potent inhibitory activities			
Oc1ccc(CCNCc2ccc(O)c(O)c2)cc1 [SY90, 4-{[2-(4-hydroxy-phenyl)-ethylamino]-methyl}-benzene-1,2-diol]	>0.1	12				
Oc1ccc(CCNCc2ccccc2O)cc1 [SY109, 4-[2-(2-hydroxy-benzylamino)-ethyl]-phenol]	1.5	35	potent inhibitory activities			
COc1ccc(CCN(C)Cc2ccc(OC)c(OC)c2)cc1 [SY96, (3,4-dimethoxy-benzyl)-[2-(4-methoxy-phenyl)-ethyl]-methyl-amine]	1.5	21	potent inhibitory activities			
COc1ccc(CNCCc2ccc(O)cc2)cc1OC [SY88, 4-[2-(3,4-dimethoxy-benzylamino)-ethyl]-phenol]	>0.1	8				
COc1ccc(C=CCN(C)Cc2ccc(F)cc2)cc1OC [SY99, [3-(3,4-dimethoxy-phenyl)-allyl]-(4-fluoro-benzyl)-methyl-amine]	0.4	15	potent inhibitory activities			
CC(Cc1ccc(O)c(O)c1)C(C)Cc1ccc(O)c(O)c1 (centres unmarked) [NDGA, 4,4′-(2,3-dimethyl-1,4-butanediyl)bis-1,2-benzenediol]				completely inhibited	inhibitory action on the abscisic acid biosynthesis	did not close
COC(=O)COc1ccc(CCN(CC(=O)OC)Cc2ccc(OC)c(OC)c2)cc1 [SY94, {(3,4-dimethoxy-benzyl)-[2-(4-methoxycarbonylmethoxy-phenyl)-ethyl]-amino}-acetic acid methyl ester]	2.1	52	potent inhibitory activities			
Oc1ccc(CCNCc2ccoc2)cc1 [SY107, 4-{2-[(furan-3-ylmethyl)-amino]-ethyl}-phenol]	>0.1	10				
Oc1ccc(CCNCc2ccncc2)cc1 [SY106, 4-{2-[(pyridin-4-ylmethyl)-2-amino]-ethyl}-phenol]	>0.1	9				
